Experimental data from publication PMC10478824, “Development of FAPI Tetramers to Improve Tumor Uptake and Efficacy of FAPI Radioligand Therapy” (Journal of Nuclear Medicine, 2023).

What was measured:
[1] = In vitro stability in phosphate-buffered saline and fetal bovine serum (radio-HPLC); format: in vitro ADME; details: 24 h incubation in phosphate-buffered saline and fetal bovine serum
[2] = test system: HT-1080-FAP tumors; test: Ex vivo biodistribution of ^177Lu-labeled FAPIs in HT-1080-FAP tumor-bearing mice; details: for tumor uptake: HT-1080-FAP tumors
Method: (§1) All animal experimental procedures were approved by the Animal Care and Ethics Committee of Xiamen University and performed in accordance with the Guidelines for the Care and Use of Animals of the Xiamen University Laboratory Animal Center. For in vivo experiments, 6-wk-old BALB/c nude mice (Beijing Vital River Laboratory Animal Technology Co., Ltd.) were subcutaneously inoculated with HT-1080-FAP or U87 cells (5 × 10^6 in 100 μL of phosphate-buffered saline) in the right shoulder.
Three groups of HT-1080-FAP mice were injected with 0.74 MBq of ^177Lu-FAPI-46, ^177Lu-DOTA-2P(FAPI)2, or ^177Lu-DOTA-4P(FAPI)4 and were euthanized at different time points (24–48 h for monomers and 24–96 h for dimers and tetramers, 3/group). Blood, tumor, muscle, and major organs were weighed and measured using a γ-counter (WIZARD^2 2480). Data were normalized to the percentage injected dose per gram (%ID/g) using 1% of total counts.

[3] = test system: HT-1080-FAP tumors; test: FAP-targeted radioligand therapy in HT-1080-FAP tumor-bearing mice; format: in vivo
Method: as §1
(§2) When the tumor volume reached approximately 100 mm^3, the mice were randomized into 4 groups for radioligand therapy with ^177Lu-labeled monomeric, dimeric, and tetrameric FAPIs (6/group): group A, saline; group B, 29.6 MBq of ^177Lu-FAPI-46; group C, 29.6 MBq of ^177Lu-DOTA-2P(FAPI)2; and group D, 29.6 MBq of ^177Lu-DOTA-4P(FAPI)4. […] HT-1080-FAP, a FAP-transfected tumor xenograft with much higher levels of FAP expression than U87MG, was also used in this study. Therefore, the frequency of administration was higher in U87MG tumor–bearing mice (every 72 h, 3 doses in total) than in the HT-1080-FAP models (a single dose). Weight and tumor volume were monitored every 2 d, and the mice were euthanized when the average tumor volume exceeded 1,500 mm^3, when the tumor was ulcerated, or when weight loss was more than 20%. To further assess radioligand therapy–related toxicity effects, the main organs were collected from the ^177Lu-DOTA-4P(FAPI)4 group on day 22 after hematoxylin and eosin staining ([16]).

[4] = test system: U87MG tumors; test: FAP-targeted radioligand therapy in U87MG tumor-bearing mice; format: in vivo; details: 29.6 MBq every 72 h, 3 doses
Method: as §1
as §2, with “To further assess radioligand therapy–related toxicity effects, the main organs were collected from the ^177Lu-DOTA-4P(FAPI)4 group on day 22 after hematoxylin and eosin staining ([16]).” left out

[5] = biological target: T1, FAP (FAP-positive HT-1080-FAP cells) (Homo sapiens, UniProt Q12884); test: Competitive cell-binding assay against ^68Ga-FAPI-46; details: competition with ^68Ga-FAPI-46, 60 min, read-out: 50% inhibitory concentration
T1 construct: expressed in transfected cells; host or cells: HT-1080 human fibrosarcoma cells, stably transfected (HT-1080-FAP)
T1 sequence (Q12884 1-760): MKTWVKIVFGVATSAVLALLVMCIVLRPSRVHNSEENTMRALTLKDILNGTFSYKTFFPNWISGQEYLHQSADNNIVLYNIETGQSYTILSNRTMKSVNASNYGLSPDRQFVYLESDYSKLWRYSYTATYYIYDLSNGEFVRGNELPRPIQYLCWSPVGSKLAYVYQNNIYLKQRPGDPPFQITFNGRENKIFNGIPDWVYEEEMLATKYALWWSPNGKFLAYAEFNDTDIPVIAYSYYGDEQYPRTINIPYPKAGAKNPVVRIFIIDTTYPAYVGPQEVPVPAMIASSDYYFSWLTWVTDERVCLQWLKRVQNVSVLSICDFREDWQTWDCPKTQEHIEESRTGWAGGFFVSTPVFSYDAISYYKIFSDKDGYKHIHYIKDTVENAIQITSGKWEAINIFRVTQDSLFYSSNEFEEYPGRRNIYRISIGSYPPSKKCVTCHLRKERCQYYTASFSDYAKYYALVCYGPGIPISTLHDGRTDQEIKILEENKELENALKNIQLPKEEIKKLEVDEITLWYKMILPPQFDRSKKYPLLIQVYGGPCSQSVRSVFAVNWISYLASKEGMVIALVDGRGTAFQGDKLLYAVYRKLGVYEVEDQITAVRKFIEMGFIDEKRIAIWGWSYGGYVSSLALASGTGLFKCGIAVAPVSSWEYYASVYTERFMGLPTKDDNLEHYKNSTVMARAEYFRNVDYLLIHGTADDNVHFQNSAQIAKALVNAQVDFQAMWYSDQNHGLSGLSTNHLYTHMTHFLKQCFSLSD
Method: A human fibrosarcoma cell line was stably transfected with FAP (HT-1080-FAP) and cultured, as previously described ([15]). A human glioblastoma cell line (U87MG, from the Chinese National Infrastructure of Cell Line Resource) was cultured in Dulbecco modified Eagle medium (Thermo Fischer Scientific) supplemented with 10% fetal bovine serum (Thermo Fisher Scientific). HT-1080-FAP cells were seeded in 24-well plates using RPMI 1640 medium with 10% fetal bovine serum, and the medium was replaced with fresh medium without fetal bovine serum when the cells reached 80%–90% density. ^68Ga-FAPI-46, ^68Ga-DOTA-2P(FAPI)2, ^68Ga-DOTA-4P(FAPI)4, or ^68Ga-DOTA-4P(FAPI)4 with 11.3 nmol of unlabeled FAPI-46 (for the blocking experiment) were added to the 24-well plates and incubated for 60, 90, and 120 min. For the competitive cell-binding assay, a gradient concentration (5.6 × 10^−13 to 10^−5 M) of FAPI-46, DOTA-2P(FAPI)2, or DOTA-4P(FAPI)4 was added to the cells and incubated with ^68Ga-FAPI-46 for 60 min. […] The radioactivity (counts per minute) was determined with a γ-counter (WIZARD^2 2480; PerkinElmer Inc.). […] The 50% inhibitory concentrations were determined by fitting a nonlinear regression model to the data using Prism software, version 8 (GraphPad Software Inc.).

[6] = HT-1080-FAP tumor-bearing mice, 48 h after injection

Compound | in vitro stability (demetallation / free radioactivity) [1] | in vitro stability (demetallation / free radioactivity) ([1]; listed as 177Lu-DOTA-4P[FAPI]4) | kidney uptake [2, 6] [%ID/g] | liver uptake [2, 6] [%ID/g] | spleen uptake [2, 6] [%ID/g] | tumor uptake ([2]; 24 h after injection) [%ID/g] | tumor uptake ([2]; 48 h after injection) [%ID/g] | tumor uptake ([2]; 72 h after injection) [%ID/g] | tumor uptake ([2]; 96 h after injection) [%ID/g] | systemic toxicity by monitoring body weight ([3]; HT-1080-FAP tumor-bearing mice, 29.6 MBq) | tumor growth after radioligand therapy ([3]; HT-1080-FAP, single dose 29.6 MBq) | hematoxylin and eosin staining of selected nontarget organs ([3]; organs collected on day 22, versus control) | median survival [4] | tumor volume ([4]; day 14 after treatment) [mm^3] | IC50 [5] [nM]
CN(CCCN1CCN(C(=O)COCCOCCOCCNC(=O)CCC(=O)NCCCC[C@H](NC(=O)CCC(=O)NCCOCCOCCOCC(=O)N2CCN(CCCN(C)c3ccc4nccc(C(=O)NCC(=O)N5CC(F)(F)C[C@H]5C#N)c4c3)CC2)C(=O)NCCCC[C@H](NC(=O)[C@H](CCCCNC(=O)CN2CCN(CC(=O)[O-])CCN(CC(=O)[O-])CCN(CC(=O)[O-])CC2)NC(=O)CCC(=O)NCCOCCOCCOCC(=O)N2CCN(CCCN(C)c3ccc4nccc(C(=O)NCC(=O)N5CC(F)(F)C[C@H]5C#N)c4c3)CC2)C(=O)NCCOCCOCCOCC(=O)N2CCN(CCCN(C)c3ccc4nccc(C(=O)NCC(=O)N5CC(F)(F)C[C@H]5C#N)c4c3)CC2)CC1)c1ccc2nccc(C(=O)NCC(=O)N3CC(F)(F)C[C@H]3C#N)c2c1.[177Lu+3] [^177Lu-DOTA-4P(FAPI)4] | highly stable | neither significant demetallation nor free radioactivity was observed | 6.6 ± 0.2 | 6.3 ± 0.5 | 5.1 ± 0.7 | 21.4 ± 1.7 | 19.2 ± 0.6 | 18.8 ± 2.1 | 14.8 ± 0.9 | No systemic toxicity | significant inhibition of tumor growth | no differences between the control and radioligand therapy groups | not reached | 140.28 ± 76.36 | –
CN(CCCN1CCN(C(=O)CN2CCN(CC(=O)O)CCN(CC(=O)O)CCN(CC(=O)O)CC2)CC1)c1ccc2nccc(C(=O)NCC(=O)N3CC(F)(F)C[C@H]3C#N)c2c1 [FAPI-46, reference compound] | – | – | – | – | – | – | – | – | – | – | – | – | – | – | 11.4
